Laboratory results from publication PMC7554145 (Journal of medicinal chemistry, 2020).
Converted amounts (≈) assume the structure as drawn. “Also recorded” adds a separate entry of the source. Read-outs that look alike come from different tables or passages of the source.

Legend:
[1] = tested on: Myocobacterium tuberculosis H37Rv, Mycobacterium avium 2285, Mycobacterium smegmatis (ATCC607); test: Antimycobacterial activity; assay type: cell-based, Mycobacterium spp.
[2] = tested on: cancer and healthy cell lines; test: Cytotoxicity across cell-line panel; assay type: cell-based
[3] = tested on: normal cells / cancer cells; conditions: selected solid cancer cell lines; ref [10]; cited from earlier work
DPAGT1 [4] = conditions: cited from earlier work
[5] = cited from earlier work
HPNE = test: MTT cytotoxicity assay, HPNE; assay type: cell-based; conditions: read-out: IC50 HPNE
[6] = tested on: MraY, WecA, AglH, and DPAGT1; test: Phosphotransferase panel; assay type: biochemical; conditions: at 50 μM concentration
Snail = Snail expression; assay type: cell-based; conditions: 0.05 and 2.0 μM
HCT-116 [7] = test: Scratch; assay type: cell-based; conditions: scratch assay
E-Cadherin = E-Cadherin expression; assay type: cell-based
PD002 [8] = test: Cell migration assay using transwell; assay type: cell-based, human; conditions: 0.1 μM, 18h; vs tunicamycin and gemcitabine at 0.1 μM
PD002 [9] = test: Checkerboard synergy of CPPB with paclitaxel; assay type: cell-based, human; conditions: for CA and CB, concentration in combination: growth–no growth interface
SiHa [10] = test: Scratch; assay type: cell-based, human; conditions: scratch assay, 0.2 μM
PD002 [11] = test: Kinetic proliferation assay; assay type: cell-based, human
DPAGT1 [12] = test: DPAGT1 protein expression; assay type: cell-based
DPAGT1 (Human) = DPAGT1 (Human) (Homo sapiens, UniProt Q9H3H5); test: DPAGT1 assay; assay type: biochemical
PD002 [13] = test: Scratch; assay type: cell-based, human; conditions: PD002, 24h, 0.2 μM; untreated 63%
MraY/MurX = conditions: cited from earlier work
PD002 [14] = test: MTT cytotoxicity assay, PD002; assay type: cell-based, human; conditions: read-out: IC50 PD002
DLD-1 = test: MTT cytotoxicity assay, DLD-1; assay type: cell-based; conditions: read-out: IC50 DLD-1, 72h
WecA (E. coli) = WecA (E. coli) (Escherichia coli, UniProt P0AC78); test: WecA assay; conditions: read-out: IC50 WecA (E. coli)
Capan-1 = test: MTT cytotoxicity assay, Capan-1; assay type: cell-based, human; conditions: read-out: IC50 Capan-1, 72h
AsPC-1 = test: MTT cytotoxicity assay, AsPC-1; assay type: cell-based, human; conditions: read-out: IC50 AsPC-1, 72h
L1210 = test: MTT cytotoxicity assay, L1210; assay type: cell-based, mouse; conditions: read-out: IC50 L1210, 72h
Vero = test: MTT cytotoxicity assay, Vero; assay type: cell-based, Cercopithecus aethiops; conditions: read-out: IC50 Vero, 72h, normal kidney cell
HCT-116 [15] = test: MTT cytotoxicity assay, HCT-116; assay type: cell-based; conditions: read-out: IC50 HCT-116, 72h
AglH (M. jannaschii) = AglH (M. jannaschii) (Methanocaldococcus jannaschii, UniProt Q58513); test: AglH assay; assay type: biochemical; conditions: read-out: IC50 AglH (M. jannaschii)
KB = test: MTT cytotoxicity assay, KB; assay type: cell-based, human; conditions: read-out: IC50 KB, 72h
WecA = conditions: read-out: IC50 WecA; ref [9],[10]; cited from earlier work
PANC-1 = test: MTT cytotoxicity assay, PANC-1; assay type: cell-based, human; conditions: read-out: IC50 PANC-1, 72h
SiHa [16] = test: MTT cytotoxicity assay, SiHa; assay type: cell-based, human; conditions: read-out: IC50 SiHa, 72h
[17] = biological target: MraY (Hydrogenivirga sp.) (Hydrogenivirga sp. 128-5-R1-1, UniProt Z9Y2G8N0L0); test: MraY assay; assay type: biochemical; conditions: read-out: IC50 MraY (Hydrogenivirga sp.)
DPAGT1 gene = test: RT-qPCR of DPAGT1 gene expression in PD002; assay type: cell-based, human; conditions: 10 μM, 24h at 37 °C

Chain of DPAGT1 (Human) (Q9H3H5 whole entry): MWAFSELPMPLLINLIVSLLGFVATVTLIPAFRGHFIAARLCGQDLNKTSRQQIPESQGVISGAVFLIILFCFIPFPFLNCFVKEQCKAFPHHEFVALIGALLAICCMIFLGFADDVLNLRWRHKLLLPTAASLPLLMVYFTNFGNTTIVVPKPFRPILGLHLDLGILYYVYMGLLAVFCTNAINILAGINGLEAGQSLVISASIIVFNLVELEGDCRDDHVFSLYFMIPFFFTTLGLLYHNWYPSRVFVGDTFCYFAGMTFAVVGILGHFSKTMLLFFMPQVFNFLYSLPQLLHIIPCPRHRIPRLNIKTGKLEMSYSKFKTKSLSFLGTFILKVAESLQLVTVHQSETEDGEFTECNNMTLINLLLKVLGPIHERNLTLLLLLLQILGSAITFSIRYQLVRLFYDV
Chain of MraY (Hydrogenivirga sp.) (Z9Y2G8N0L0 7-365 limits assumed): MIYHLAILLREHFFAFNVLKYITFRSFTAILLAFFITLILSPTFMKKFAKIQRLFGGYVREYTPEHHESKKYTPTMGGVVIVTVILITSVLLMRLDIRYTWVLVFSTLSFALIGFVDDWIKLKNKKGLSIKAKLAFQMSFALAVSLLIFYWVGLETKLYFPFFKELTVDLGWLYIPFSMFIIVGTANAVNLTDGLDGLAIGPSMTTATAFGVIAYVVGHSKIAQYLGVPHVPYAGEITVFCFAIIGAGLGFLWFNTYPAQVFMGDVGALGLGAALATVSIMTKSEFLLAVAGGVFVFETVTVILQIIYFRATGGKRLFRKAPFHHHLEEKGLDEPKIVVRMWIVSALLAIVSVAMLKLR
Chain of AglH (M. jannaschii) (Q58513 whole entry): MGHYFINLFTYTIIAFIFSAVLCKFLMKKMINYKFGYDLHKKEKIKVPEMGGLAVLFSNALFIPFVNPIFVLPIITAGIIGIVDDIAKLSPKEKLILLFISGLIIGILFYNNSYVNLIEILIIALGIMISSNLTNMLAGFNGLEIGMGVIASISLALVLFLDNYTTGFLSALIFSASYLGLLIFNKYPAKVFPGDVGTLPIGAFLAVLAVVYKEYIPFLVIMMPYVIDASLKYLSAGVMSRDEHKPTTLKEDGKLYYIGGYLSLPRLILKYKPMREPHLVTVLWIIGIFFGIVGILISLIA
Chain of WecA (E. coli) (P0AC78 whole entry): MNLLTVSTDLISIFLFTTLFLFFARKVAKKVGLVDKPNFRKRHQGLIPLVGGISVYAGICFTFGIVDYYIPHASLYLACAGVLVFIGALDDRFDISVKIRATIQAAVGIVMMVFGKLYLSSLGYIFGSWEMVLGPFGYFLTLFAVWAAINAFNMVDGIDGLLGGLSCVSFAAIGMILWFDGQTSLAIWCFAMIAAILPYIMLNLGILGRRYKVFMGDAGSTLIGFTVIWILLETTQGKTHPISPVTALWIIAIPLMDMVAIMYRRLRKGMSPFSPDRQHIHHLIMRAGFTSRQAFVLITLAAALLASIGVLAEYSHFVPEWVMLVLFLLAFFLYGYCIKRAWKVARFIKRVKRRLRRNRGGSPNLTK

With `CO[C@@H]1[C@H](O)[C@@H]([C@@H](O[C@H]2OC(C(=O)NCc3ccc(N4CCC(Oc5ccc(OC(F)(F)F)cc5)CC4)cc3)=C[C@H](O)[C@@H]2O)C(N)=O)O[C@H]1n1ccc(=O)[nH]c1=O` the “growth inhibitory activity against Mycobacterium spp.” value ([1]; at 50 μg/mL) was “did not show growth inhibitory activity” and the “antiproliferative activity against L1210, HPNE, and Vero” value ([2]; at 50 μM) was “did not show antiproliferative activity”.

In the case of `NC[C@H]1O[C@@H](O[C@H]([C@H]2O[C@@H](n3ccc(=O)[nH]c3=O)[C@H](O)[C@@H]2O)[C@H](NCCCC(=O)NCc2ccc(N3CCC(Oc4ccc(OC(F)(F)F)cc4)CC3)cc2)C(N)=O)[C@H](O)[C@@H]1O` [APPB, Aminouridyl phenoxylpiperidinylbenzylbutanamide], the “selective cytotoxicity (IC50 normal cells / cancer cells)” value [3] is listed as greater than 35, the “DPAGT1 inhibitory activity relative to tunicamycin” value (DPAGT1 [4]; ref [10]) is listed as “greater than 30 times” and the LD50 ([5]; mouse, ref [10],[18]) is listed as greater than 20 mg/kg.

`CO[C@H]1[C@@H](O)[C@H](n2ccc(=O)[nH]c2=O)O[C@@H]1[C@@H](O[C@H]1OC(C(=O)N[C@H]2CCCCNC2=O)=C[C@H](O)[C@@H]1O)C(N)=O` [CAP, Capuramycin, reference compound] gave an IC50 (HPNE; HPNE, 72 h) greater than 50 µM.

With `CO[C@H]1[C@@H](O)[C@H](n2ccc(=O)[nH]c2=O)O[C@@H]1[C@@H](O[C@H]1OC(CNCc2ccc(N3CCC(Oc4ccc(OC(F)(F)F)cc4)CC3)cc2)=C[C@H](O)[C@@H]1O)C(N)=O` [CPPA, (2R)-2-(((2S,3S,4S)-3,4-Dihydroxy-6-(((4-(4-(4-(trifluoromethoxy)phenoxy)piperidin-1-yl)benzyl)amino)methyl)-3,4-dihydro-2H-pyran-2-yl)oxy)-2-((2S,5R)-5-(2,4-dioxo-3,4-dihydropyrimidin-1(2H)-yl)-4-hydroxy-3-methoxytetrahydrofuran-2-yl)acetamide] the “inhibition of all phosphotransferases tested in Table 1” value [6] was “did not inhibit”.

For `CO[C@H]1[C@@H](O)[C@H](n2ccc(=O)[nH]c2=O)O[C@@H]1[C@@H](O[C@H]1OC(C(=O)NCc2ccc(N3CCC(Oc4ccc(OC(F)(F)F)cc4)CC3)cc2)=C[C@H](O)[C@@H]1O)C(N)=O` [CPPB, (2S,3S,4S)-2-((1R)-2-Amino-1-((2S,5R)-5-(2,4-dioxo-3,4-dihydropyrimidin-1(2H)-yl)-4-hydroxy-3-methoxytetrahydrofuran-2-yl)-2-oxoethoxy)-3,4-dihydroxy-N-(4-(4-(4-(trifluoromethoxy)phenoxy)piperidin-1-yl)benzyl)-3,4-dihydro-2H-pyran-6-carboxamide], the IC50 (HPNE; HPNE, 72 h) was greater than 50 µM, the “Snail expression level in HCT-116” value (Snail) was “not noticeably changed” and the MIC [1] was 6.25 to 12.5 µg/mL (≈ 7.74 to 15.5 µM). For the same compound, the “inhibition of cell migration of HCT-116” value (HCT-116 [7]) was “not inhibited; also recorded: did not inhibit migration”, the “E-Cadherin expression level of PANC-1” value (E-Cadherin; Western blot, 0–2.0 μM) was “the same expression level” and the “E-Cadherin expression levels of PD002, PANC-1, and HCT-116” value (E-Cadherin; immunofluorescence, 0.05–2.0 μM) was “not changed significantly”. For the same compound, the “inhibition of cell migration of PD002 (Boyden chamber)” value (PD002 [8]) was “inhibited on a higher level”, the “CA and CB, concentration in combination” value (PD002 [9]; Table 3 entry 1) was 0.10 µM and the “CA and CB, concentration in combination” value (PD002 [9]; Table 3 entry 2) was 0.10 µM. For the same compound, the “CA and CB, concentration in combination” value (PD002 [9]; Table 3 entry 3) was 0.20 µM, the “CA and CB, concentration in combination” value (PD002 [9]; Table 3 entry 4) was 0.20 µM and the “CA and CB, concentration in combination” value (PD002 [9]; Table 3 entry 5) was 0.20 µM. For the same compound, the “CA and CB, concentration in combination” value (PD002 [9]; Table 3 entry 6) was 2.0 µM, the “CA and CB, concentration in combination” value (PD002 [9]; Table 3 entry 7) was 2.0 µM and the “CA and CB, concentration in combination” value (PD002 [9]; Table 3 entry 8) was 2.0 µM. The “synergistic effect with paclitaxel against PD002” value (PD002 [9]; checkerboard) was “strong synergistic effects”, the “inhibition of migration of SiHa” value (SiHa [10]) was “strongly inhibited migration” and the “viability of all pancreatic cancers tested” value ([2]; MTT assays, 20 μM) was “remained viable”. The “cytotoxicity against a series of cancer and healthy cell lines” value ([2]; at 10 μM or higher concentrations) was “not cytotoxic”, the “antiproliferative activity against L1210, HPNE, and Vero” value ([2]; at 50 μM) was “did not show antiproliferative activity” and the IC50 ([2]; read-out: IC50 growth inhibition of solid cancer cell lines (span)) was 15 to 45 µM. The “phase area confluent of PD002 culture after 72h” value (PD002 [11]; CPPB 50 μM, same as time 0h, control (PBS) ca. 70%) was 10–13%, the “cell proliferation inhibited at time 72h” value (PD002 [11]; PD002, CPPB 0.2–20 μM) was “ca. 20%” and the cell permeability (PD002 [11]; demonstrated by IncuCyte live cell analyses and immunofluorescence assays) was “cell-permeable”. The “DPAGT1 expression in pancreatic cancer cell lines” value (DPAGT1 [12]; 0.2 μM) was “apparently inhibited”, the “DPAGT1 expression levels of HCT-116 remaining” value (DPAGT1 [12]; Western blot, CPPB 0.1–20 μM) was 20–90% and the “DPAGT1 inhibitory activity relative to tunicamycin” value (DPAGT1 (Human)) was ~ 7.5 times. The wound-healing rate (PD002 [13]) was “approximately 20%”.

In the case of `CO[C@@H]1[C@H](O)[C@@H]([C@@H](O[C@H]2OC(CNCc3ccc(N4CCC(Oc5ccc(OC(F)(F)F)cc5)CC4)cc3)=C[C@H](O)[C@@H]2O)C(N)=O)O[C@H]1n1ccc(=O)[nH]c1=O` [I-CPPA, (2R)-2-(((2S,3S,4S)-3,4-Dihydroxy-6-(((4-(4-(4-(trifluoromethoxy)phenoxy)piperidin-1-yl)benzyl)amino)methyl)-3,4-dihydro-2H-pyran-2-yl)oxy)-2-((2S,5R)-5-(2,4-dioxo-3,4-dihydropyrimidin-1(2H)-yl)-3-hydroxy-4-methoxytetrahydrofuran-2-yl)acetamide], the “inhibition of all phosphotransferases tested in Table 1” value [6] is reported as “did not inhibit”.

For `CO[C@H]1[C@@H](OC)[C@H](n2ccc(=O)[nH]c2=O)O[C@@H]1[C@@H](O[C@H]1OC(C(=O)N[C@H]2CCCCNC2=O)=C[C@H](O)[C@@H]1O)C(N)=O` [OM-CAP, O-Methyl capuramycin], the IC50 (HPNE; HPNE, 72 h) is listed as greater than 50 µM, the IC50 (MraY/MurX; read-out: IC50 MraY, previously identified, ref [9]) is listed as greater than 50 µM and the “cytotoxicity against healthy cells (e.g., Vero and HPNE cells)” value ([2]; at 50 μM) is listed as “does not show cytotoxicity”.

In the case of `CC(=O)O[C@H]1C(=O)[C@@]2(C)[C@H]([C@H](OC(=O)c3ccccc3)[C@]3(O)C[C@H](OC(=O)[C@H](O)[C@@H](NC(=O)c4ccccc4)c4ccccc4)C(C)=C1C3(C)C)[C@]1(OC(C)=O)CO[C@@H]1C[C@@H]2O` [Paclitaxel, reference compound], the IC50 (PD002 [14]; Homo sapiens, PD002, 72 h) is reported as 1.25 µM, the “CA and CB, concentration in combination” value (PD002 [9]; Table 3 entry 1) is reported as 0.63 µM and the “CA and CB, concentration in combination” value (PD002 [9]; Table 3 entry 2) is reported as 0.16 µM. The “CA and CB, concentration in combination” value (PD002 [9]; Table 3 entry 3) was 0.0049 µM, the “CA and CB, concentration in combination” value (PD002 [9]; Table 3 entry 4) was 0.020 µM and the “CA and CB, concentration in combination” value (PD002 [9]; Table 3 entry 6) was 0.020 µM.

In the case of Tunicamycin, the IC50 (HPNE; MTT assay, 72h, normal pancreatic ductal cell) is reported as 7.5 µM, the IC50 (DLD-1) is reported as 1.25 µM and the IC50 (WecA (E. coli)) is reported as 0.15 µM. The IC50 (MraY/MurX; read-out: IC50 MraY/MurX, ref [9],[10]) was 2.9 µM, the IC50 (PD002 [14]; MTT assay, 72h) was 1.5 µM and the IC50 (Capan-1) was 1.5 µM. The IC50 (AsPC-1) was 0.45 µM, the IC50 (L1210) was 1.7 µM and the IC50 (Vero) was 0.78 µM. The IC50 (HCT-116 [15]) was 0.92 µM, the IC50 (AglH (M. jannaschii)) was 13.2 µM and the IC50 (KB) was 2.5 µM. The IC50 (WecA) was 0.15 µM, the IC50 (PANC-1) was 1.5 µM and the IC50 (SiHa [16]) was 0.92 µM. For the same compound, the IC50 [17] was 2.9 µM, the IC50 (DPAGT1 [4]; read-out: IC50 DPAGT1, ref [9],[10]) was 1.5 µM and the LD50 ([5]; mice, IP, ref [18],[19]) was 2.0 mg/kg. The LD100 ([5]; mice, IP, ref [18],[19]) was 3.5 mg/kg, the LD50 ([5]; mouse, ref [10],[18]) was 2.0 mg/kg and the PD002 killed (DPAGT1 gene) was 100%. For the same compound, the IC50 (DPAGT1 (Human); read-out: IC50 DPAGT1 (Human)) was 1.5 µM and the wound-healing rate (PD002 [13]) was 35%.
